Experiments:
SUR-1−/− Mice = settings: cited from earlier work
mouse cortical cells = assay: Protection of cortical cells from apoptosis (hydrogen peroxide, MTT assay); assay type: cell-based; settings: approx. 0.1 μM; 50 μM hydrogen peroxide; cell death by MTT assay
Method: To induce apoptosis, mouse cortical cells were cultured and treated with 50 μM hydrogen peroxide for three hours prior to being treated with the ganglioside analogue.
The cells were also treated with the hydrogen peroxide during treatment with the ganglioside analogue and post-treatment for 48 h. Cell death was assayed using the MTT assay.

[1] = test system: C57B1/6 mice treated with MPTP; assay: Animal model of Parkinson's and atypical Parkinson's disease (MPTP); assay type: in vivo, mouse; settings: daily administration for three weeks
Method: C57B1/6 mice 7-8 weeks of age can be treated with MPTP (b.i.d., 20 mg/kg, s.c.). The mice also receive a daily administration of saline, compound of formula (1), (2), (3), (4), (5), (6), (7), (8), (9) or (10) (1, 10 and 30 mg/kg, o.s.) or (0.3. to 3 mg/kg, i.p. or s.c.) for three weeks starting 24 h after the last MPTP injection. The brains are removed and analyzed for striatum and substantia nigra pars compacta dopamine levels. The midbrain is fixed for TH immunohistochemistry and dopamine neuron cell counts.

melanoma = settings: cited from earlier work
KATP channels = settings: in vitro; by activation of the KATP channels; ceramide fatty acid of C16:0; cited from earlier work
human adippose tissue = settings: human adipose tissue, in vitro; cited from earlier work

Substance: Exendin-(9-39)
- fasting blood glucose levels (SUR-1−/− Mice): Significantly Raises

Substance: Gal3GalNAc4(Neu5Ac3)Gal4GlcCer [GM1]
- protection of the cells from apoptosis (mouse cortical cells): approximately 20%
- striatal dopamine levels [1]: increase striatal dopamine levels to approximately the same extent

Substance: Gal3GalNAc4(Neu5Ac8Neu5Ac3)Gal4GlcCer [GD1b]
- growth of melanoma (melanoma): suppress

Substance: Neu5Ac3Gal3GalNAc4(Neu5Ac8Neu5Ac3)Gal4GlcCer [GT1b]
- growth of melanoma (melanoma): suppress

Substance: Neu5Ac8Neu5Ac3Gal3GalNAc4(Neu5Ac8Neu5c3)Gal4GlcCer [GQ1b]
- growth of melanoma (melanoma): suppress

Substance: sulfatide
- glucose stimulation of insulin secretion (KATP channels): inhibited
- expression of adiponectin (human adippose tissue): increased
- levels of IL-6 (human adippose tissue): decreasing
- levels of IL-8 (human adippose tissue): decreasing
- levels of TNF-alpha (human adippose tissue): decreasing
